test system: ethanol-induced ulcer; assay: Anti-ulcer activities, ethanol-induced ulcer; assay type: in vivo; conditions: po, 1 h; rat, perorally, dose 10 μg/kg, 30 min before ethanol
Method: 1. Anti-ulcer activities, Ethanol-induced ulcer
Inhibitory effects of ethanol-induced ulcer are determined by the method of A. Robert (Gastroenterology 77, 433-43). Rats are fasted for 24 hrs. and are given 1 ml of absolute ethanol perorally. 1 hour after administration of ethanol, the stomach of the rat is removed. The length of each ulcer occurring in the grandulor stomach is determined and each ulcer in one rat is acounted as ulcer-index. The test compounds are given perorally 30 minutes before ethanol administration.

SMILES | inhibition in vivo at 0.01 mg/kg
O=C(O)CCCC=C1C[C@H]2C[C@@H](O)[C@H](/C=C/[C@@H](O)C3COc4ccccc4O3)[C@H]2C1 (stereo partly drawn) [Compound 5, 15α-Hydroxy-15-(benzodioxane-2-yl)-carbacyclin] | 71.9%
CC1([C@H](O)/C=C/[C@@H]2[C@H]3CC(CCOCC(=O)O)=C[C@H]3C[C@H]2O)Cc2ccccc2C1 [Compound 41, 15α-Hydroxy-15-(2-methylindan-2-yl)-3-oxa-isocarbacyclin] | 64.2%
O=C(O)COCCC1=C[C@H]2C[C@@H](O)[C@H](/C=C/[C@@H](O)C3COc4ccccc4O3)[C@H]2C1 (stereo partly drawn) [Compound 45, 15α-Hydroxy-15-(1,4-benzodioxane-2-yl)-3-oxa-isocarbacyclin] | 58.9%

same assay, conditions: po, 1 h; rat, perorally, dose 30 μg/kg, 30 min before ethanol

SMILES | inhibition in vivo at 0.03 mg/kg
O=C(O)CCCC=C1C[C@H]2C[C@@H](O)[C@H](C#C[C@@H](O)C3Cc4ccccc4C3)[C@H]2C1 [Compound 3, 13,14-Dehydro-15α-hydroxy-15-(indan-2-yl)-carbacyclin] | 93.4%
COc1ccc2c(c1)OCC([C@H](O)/C=C/[C@@H]1[C@H]3CC(=CCCCC(=O)O)C[C@H]3C[C@H]1O)O2 (stereo partly drawn) [Compound 11, 15α-Hydroxy-15-(6-methoxybenzodioxane-2-yl)-carbacyclin] | 82.1%
CC1([C@H](O)/C=C/[C@@H]2[C@H]3CC(=CCOCC(=O)O)C[C@H]3C[C@H]2O)Cc2ccccc2C1 [Compound 33, 15α-Hydroxy-15-(2-methylindan-2-yl)-3-oxa-carbacyclin] | 47.6%
O=C(O)COCC=C1C[C@H]2C[C@@H](O)[C@H](/C=C/[C@@H](O)C3Cc4ccccc4C3)[C@H]2C1 [Compound 35, 15α-Hydroxy-15-(indan-2-yl)-3-oxa-carbacyclin] | 44.6%

same assay, conditions: po, 1 h; rat, perorally, dose 100 μg/kg, 30 min before ethanol

SMILES | inhibition in vivo at 0.1 mg/kg
O=C(O)CCCC=C1C[C@H]2C[C@@H](O)[C@H](/C=C/[C@@H](O)c3ccc4c(c3)OCCO4)[C@H]2C1 [Compound 1, 15α-Hydroxy-15-(benzodioxane-6-yl)-carbacyclin] | 41.6%
O=C(O)CCCC=C1C[C@H]2C[C@@H](O)[C@H](/C=C/[C@@H](O)C3Cc4ccccc4C3)[C@H]2C1 [Compound 7, 15α-Hydroxy-15-(indan-2-yl)-carbacyclin] | 68.7%
CC1([C@H](O)/C=C/[C@@H]2[C@H]3CC(=CCCCC(=O)O)C[C@H]3C[C@H]2O)COc2ccccc2O1 (stereo partly drawn) [Compound 17, 15β-Hydroxy-15-(2-methylbenzodioxane-2-yl)-carbacyclin] | 72.6%
O=C(O)COCC=C1C[C@H]2C[C@@H](O)[C@H](/C=C/[C@@H](O)C3COc4ccccc4O3)[C@H]2C1 (stereo partly drawn) [Compound 37, 15α-Hydroxy-15-(1,4-benzodioxane-2-yl)-3-oxa-carbacyclin] | 51.6%
O=C(O)COCCC1=C[C@H]2C[C@@H](O)[C@H](/C=C/[C@@H](O)C3Cc4ccccc4C3)[C@H]2C1 [Compound 43, 15α-Hydroxy-15-(indan-2-yl)-3-oxa-isocarbacyclin] | 51.8%

same assay, conditions: po, 1 h; rat, perorally, dose 300 μg/kg, 30 min before ethanol

SMILES | inhibition in vivo at 0.3 mg/kg
Cc1ccc2c(c1)OCC([C@H](O)/C=C/[C@@H]1[C@H]3CC(=CCCCC(=O)O)C[C@H]3C[C@H]1O)O2 (stereo partly drawn) [Compound 9, 15α-Hydroxy-15-(6-methylbenzodioxane-2-yl)-carbacyclin] | 80.6%
O=C(O)CCCC=C1C[C@H]2C[C@@H](O)[C@H](/C=C/[C@@H](O)C3Cc4ccc([N+](=O)[O-])cc4C3)[C@H]2C1 (stereo partly drawn) [Compound 23, 15α-Hydroxy-15-(5-nitroindan-2-yl)-carbacyclin] | 98.9%

test system: not listed separately; assay: Stability test in buffer solutions, by thin layer chromatography; assay type: physicochemical; conditions: pH 7.4, room temperature, 2 months
Method: About 1.5 mg of test compound was dissolved in a drop of methanol and diluted in each 1.5 ml of a buffer solution *adjusted to pH 5.2, 7.2, 7.4, 9.2, respectively. Stability test was carried out at 37° C. in the case of pH 5.2, 7.2, 9.2 and at room temperature in the case of pH 7.4,.
Using a thin layer chromatography as the identification method, the test solution in each buffer solution of pH 5.2, 7.2, 7.4 was extracted with ethyl acetate and in the case of the test solution of […], it was diluted with water, acidified at pH 4 with 10% HCl and extracted with ethyl acetate.
*pH 5.2 (0.2M Pottasium hydrogen phthalate)

Stability (change in thin layer chromatography) | SMILES
No change | O=C(O)CCCC=C1C[C@H]2C[C@@H](O)[C@H](/C=C/[C@@H](O)C3COc4ccccc4O3)[C@H]2C1 (stereo partly drawn) [Compound 5, 15α-Hydroxy-15-(benzodioxane-2-yl)-carbacyclin]
